Measured values from the supplement of paper PMC11061612.

Experiments:
[1] = test system: NCI-H441 (Lung Adenocarcinoma); assay: combination Emax (second highest fraction inhibited in the dose matrix, 72 h); higher = more inhibition; extreme values may be limits of the assay
Outline: (§1)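 After 24 hours at 37°C and 5% CO2 in 1536-well plates, cells in DMEM/F12 or RPMI plus 10% FBS received two-drug dose matrices for 72 hours. Viability came from CellTiter-Glo 2.0 luminescence and was scaled as inhibition, anchored at 0 by vehicle wells and at 1 by blank wells. Combination Emax is taken as the second-highest inhibition in the matrix, and Bliss excess as the observed combination effect less EA + EB − EA·EB, with EA and EB the single-agent effects.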

[2] = test system: PEO1 (Ovarian Carcinoma); assay: as above
Outline: as §1

[3] = test system: NCI-H1703 (Squamous Cell Lung Carcinoma); assay: as above
Outline: as §1

[4] = test system: MHH-ES-1 (Ewing's Sarcoma); assay: Bliss excess, mean over the matrix (fraction); higher = more synergy
Outline: as §1

[5] = test system: HCC1395 (Breast Carcinoma); assay: as above
Outline: as §1

[6] = test system: A2780 (Ovarian Carcinoma); assay: as above
Outline: as §1

[7] = test system: SW620 (Colorectal Carcinoma); assay: as above
Outline: as §1

[8] = test system: JHU-022 (Oral Cavity Carcinoma); assay: as above
Outline: as §1

[9] = test system: MDA-MB-436 (Breast Carcinoma); assay: as above
Outline: as §1

[10] = test system: NCI-H2087 (Lung Adenocarcinoma); assay: as above
Outline: as §1

[11] = test system: WM1552C (Melanoma); assay: as above
Outline: as §1

[12] = test system: NCI-H441 (Lung Adenocarcinoma); assay: as above
Outline: as §1

[13] = test system: SK-HEP-1 (Hepatocellular Carcinoma); assay: as above
Outline: as §1

[14] = test system: CGTH-W-1 (Thyroid Gland Carcinoma); assay: as above
Outline: as §1

[15] = test system: PEO1 (Ovarian Carcinoma); assay: as above
Outline: as §1

[16] = test system: UACC-812 (Breast Carcinoma); assay: as above
Outline: as §1

[17] = test system: HCC70 (Breast Carcinoma); assay: as above
Outline: as §1

[18] = test system: NCI-H1651 (Lung Adenocarcinoma); assay: as above
Outline: as §1

[19] = test system: 22RV1 (Prostate Carcinoma); assay: as above
Outline: as §1

[20] = test system: LU-165 (Small Cell Lung Carcinoma); assay: as above
Outline: as §1
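For Bliss excess, mean over the matrix in this document: after 72 h of two-drug dosing.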

## CN(CCO)CC[C@H](CSc1ccccc1)Nc1ccc(S(=O)(=O)NC(=O)c2ccc(N3CCC([C@@H](O)c4ccccc4-c4ccc(Cl)cc4)CC3)cc2)cc1S(=O)(=O)C(F)(F)F [AZD4320] + CC(=O)O[C@H]1C(=O)[C@@]2(C)[C@H]([C@H](OC(=O)c3ccccc3)[C@]3(O)C[C@H](OC(=O)[C@H](O)[C@@H](NC(=O)c4ccccc4)c4ccccc4)C(C)=C1C3(C)C)[C@]1(OC(C)=O)CO[C@@H]1C[C@@H]2O [Paclitaxel] (first compound max 1 µM, 7x7, partner max 3 µM)
[1]
  combination Emax: 0.735
[2]
  combination Emax: 0.852
[3]
  combination Emax: 0.976
[4]
  Bliss excess: 0.0393
[5]
  Bliss excess: 0.174
[6]
  Bliss excess: -0.0362
[7]
  Bliss excess: 0.11
[8]
  Bliss excess: 0.155
[9]
  Bliss excess: 0.0892
[10]
  Bliss excess: 0.13
[11]
  Bliss excess: -0.0076
[12]
  Bliss excess: 0.0861
[13]
  Bliss excess: 0.0236
[14]
  Bliss excess: 0.277
[15]
  Bliss excess: -0.0057
[16]
  Bliss excess: 0.0887
[17]
  Bliss excess: 0.0533
[18]
  Bliss excess: -0.0099
[19]
  Bliss excess: -0.0017
[20]
  Bliss excess: 0.137
